Values joined by “and” are separate entries in the source; they are usually repeats but may differ in a detail not shown here. Equal values may be shown once. Read-outs that look alike come from different tables or passages of the source.
What was measured:
[1] = system: pancreatic islets from wild type and GPR40−/− mice; assay: Isolated pancreatic islets static GDIS assay (insulin, glucagon secretion); assay type: cell-based, mouse; parameters: Islet insulin / Islet insulin, mean: unit not given here; details: for glucagon secretion from islets: ex vivo; for Islet Glucagon / Islet insulin: individual replicates; for Islet Glucagon, mean / Islet insulin, mean: mean of replicates
Experimental: Pancreatic islets of Langerhans were isolated from wild type and GPR40^−/− mice (littermates) by collagenase digestion and discontinuous Ficoll gradient separation. […] Insulin secretion was determined by a 1-h static incubation in Krebs-Ringer bicarbonate (KRB) buffer in a 96-well format as previously described. […] The buffer was removed from the wells at the end of the incubation and assayed for insulin levels using the Insulin ELISA kit (ALPCO, Salem, NH) and glucagon level using glucagon ELISA kit (ALPCO, Salem, NH).

GK rats = assay: GK rat acute efficacy (glucose, insulin, glucagon after single dose); assay type: in vivo; details: 10 mpk
Experimental: Ambient blood glucose was measured via tail snip with a glucometer (OneTouch Ultra, Lifescan Inc., Milpitas, CA). Body weights were then measured, and food was removed approximately 1 hr post lights on. Animals were sorted into treatment groups based on ambient glucose. At approximately 10 AM, glucose was measured and blood for insulin, glucagon, and drug exposure was collected. […] Each compound tested was dosed at its maximal effective dose determined through a series of dose titrations using this experimental paradigm (data not shown). Effects of treatment on glucose, insulin, and glucagon were measured at 1, 2, 4, and 24 hrs post dose. After the 4 hr blood collection, food was returned overnight and removed the next day at 1 hr post lights on.
Blood for insulin, glucagon, GLP-1, GIP, and PYY measurements was collected into K2EDTA Microtainer tubes (BD, Franklin Lakes, NJ) pre-treated with DPP4 inhibitor (Millipore, Billerica, MA) and cOmplete™ Protease Inhibitor Cocktail Tablets (Roche Diagnostics, Indianapolis, IN). Tubes were centrifuged for 10 minutes at 5000 RPM, and plasma was aliquotted for analysis. Plasma insulin levels were measured via EIA (Mesoscale Discovery ELISA Kit, Gaithersburg MD). Rat plasma total GLP-1 was measured using Total GLP-1 (ver.2) Assay Kit (Cat#: K150JVC). The measurement of active GLP-1 was carried out in a similar manner as that described for total GLP-1 assay with the exception that MSD Active GLP-1 (ver. 2) assay kit (Cat# K150JWC) was used. Rat plasma glucagon was measured using an in-house glucagon assay developed as a MSD format sandwich immunoassay (Merck & Co., Inc., MRL, Kenilworth, NJ USA). The antibody specificity was cross validated via mass- spec using procedures described in Lee et al. Briefly, MSD Streptavidin Gold plates were coated with 2 μg/ml biotin mouse monoclonal antibody generated to glucagon. Test samples were added to the plates and a separate Sulfo- tagged monoclonal antibody was used to detect the captured glucagon protein (2 μg/ml). The ELISA was carried out in the standard reagents in the MSD format. The plate was read on the SECTOR Imager 6000 Reader. Metabolic hormones GIP (Gastric Inhibitory Polypeptide) and PYY (Peptide YY) were measured in rat plasma using the Rat Metabolic Magnetic Bead Panel (EMD Millipore, Billerica, MA). The assay was performed according to manufacturer protocol.

human GPR40 = human GPR40 (Homo sapiens, UniProt O14842); assay: GPR40 binding assay, AgoPAM tracer [3H]25 ([3H]AP9); parameters: expressed in transfected cells; host or cells: CHO / CHO-K1 cells, membrane preparation;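 for % Bound Normalized to 100: 100% bound is tracer binding in DMSO-only wells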;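 for %Bound: 100% bound is tracer binding in DMSO-only wells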
Experimental: Two small molecule tracers, the partial agonist [3H][…] and the AgoPAM [3H]25, are used to measure compound affinity at each site as described previously. Because of the allosteric coupling of the two sites and the nature of the assay, addition of a compound will either displace (binds to same site) or augment (binds to allosterically coupled site) radiotracer. Membranes expressing GPR40 were prepared from CHO cells stably expressing human GPR40. […] Sigma P8830) and were homogenized in 50 ml aliquots with a motor-driven glass Dounce homogenizer, 15 strokes at 1900 rpm on wet ice, repeating once. Homogenates were centrifuged at 2200 rpm for 10 min at 4°C. Supernatants were carefully removed and pooled. Homogenization and centrifugation were repeated until the debris pellet was translucent to maximize membrane recovery. Supernatants were then centrifuged at […] rpm for 20 min. at 4°C. […] Protein concentration was determined by Pierce BCA kit. […] The beads and membrane mixture is then vigorously mixed for 30 minutes at room temperature prior to addition to the assay. […] Next, 15 μl of the radioligand and 35 μl of the beads/membranes solution is added to each well. The assay plates are then sealed and incubated for 30 minutes at room temperature on an orbital shaker. The plates are allowed to settle for 16 hours and then counted on a TopCount scintillation counter (PE). […] Maximal % bound and IC50 are then determined for each test compound. 5 μg/well membrane together with 200 μg/well of PVT WGA SPA beads (GE #RPNG-0001) were suspended in a white 96 well plate with a final concentration of 50 μl/well in assay buffer (50 mM Tris, 10 mM MgCl2, and 2 mM EDTA). […] The plate is briefly mixed and incubated for 3-18 h at room temperature, before it is read on a MicroBeta plate counter (Perkin Elmer, MS, USA).

[2] = radioligand L-005306257, dose 0.318285 nM
[3] = radioligand L-005306257, dose 1.00578 nM
[4] = radioligand L-005306257, dose 3.17827 nM
[5] = radioligand L-005306257, dose 10.0433 nM
[6] = radioligand L-005306257, dose 31.7369 nM
[7] = radioligand L-005306257, dose 100.289 nM
[8] = radioligand L-005306257, dose 316.912 nM
[9] = radioligand L-005306257, dose 1001.44 nM
[10] = radioligand L-005306257, dose 3164.56 nM
[11] = radioligand L-005306257, dose 10000 nM

Sequence of human GPR40 (O14842 whole entry): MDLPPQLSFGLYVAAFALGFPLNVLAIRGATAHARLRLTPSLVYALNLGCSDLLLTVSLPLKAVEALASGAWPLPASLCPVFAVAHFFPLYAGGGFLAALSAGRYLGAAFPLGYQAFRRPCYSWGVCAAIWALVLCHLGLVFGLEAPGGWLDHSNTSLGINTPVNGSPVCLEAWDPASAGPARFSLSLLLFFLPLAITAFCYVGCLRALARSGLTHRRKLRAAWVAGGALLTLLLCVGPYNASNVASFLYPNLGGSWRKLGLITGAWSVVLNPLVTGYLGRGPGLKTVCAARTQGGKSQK

Compound: C[C@H](C(=O)O)[C@H](c1ccc2c(c1)O[C@H](C1CN(Cc3cc(C(F)(F)F)ccc3C(F)(F)F)C1)CC2)C1CC1 [AP3]
- glucagon secretion from islets ([1]; GPR40-/- mouse islets): abolished
- Islet Glucagon ([1]; KO mouse islets, G2, 1uM): 25.089 pg/ml/ islet and 11.858 pg/ml/ islet and 9.721 pg/ml/ islet and 3.205 pg/ml/ islet and 12.4 pg/ml/ islet and 14.931 pg/ml/ islet and 18.163 pg/ml/ islet and 18.456 pg/ml/ islet and 21.346 pg/ml/ islet and 15.13 pg/ml/ islet
- Islet insulin ([1]; KO mouse islets, G2, 1uM): 0.293 and 0.272 and 0.213 and 0.106 and 0.37 and 0.44 and 0.27 and 0.128 and 1.077 and 0.675
- Islet Glucagon, mean ([1]; KO mouse islets, G2, 1uM): 15.0299 pg/ml/ islet
- Islet insulin, mean ([1]; KO mouse islets, G2, 1uM): 0.3844
- Islet Glucagon ([1]; KO mouse islets, G16, 1uM): 4.043 pg/ml/ islet and 5.474 pg/ml/ islet and 8.717 pg/ml/ islet and 11.984 pg/ml/ islet and 16.06 pg/ml/ islet and 18.271 pg/ml/ islet and 3.382 pg/ml/ islet and 7.691 pg/ml/ islet and 7.902 pg/ml/ islet and 2.338 pg/ml/ islet
- Islet insulin ([1]; KO mouse islets, G16, 1uM): 5.28 and 3.491 and 4.033 and 2.378 and 3.966 and 1.757 and 3.131 and 3.522 and 3.781 and 3.035
- Islet Glucagon, mean ([1]; KO mouse islets, G16, 1uM): 8.5862 pg/ml/ islet
- Islet insulin, mean ([1]; KO mouse islets, G16, 1uM): 3.4374
- Islet Glucagon ([1]; WT mouse islets, G2, 1uM): 38.183 pg/ml/ islet and 99.219 pg/ml/ islet and 47.629 pg/ml/ islet and 35.059 pg/ml/ islet and 41.718 pg/ml/ islet and 44.978 pg/ml/ islet and 113.083 pg/ml/ islet and 70.443 pg/ml/ islet and 44.123 pg/ml/ islet and 60.974 pg/ml/ islet
- Islet insulin ([1]; WT mouse islets, G2, 1uM, listed as L-005427846): 1.34 and 1.9735 and 0.61 and 0.65 and 0.79 and 1.22 and 0.9145 and 1.416 and 1.5465 and 1.2555
- Islet Glucagon, mean ([1]; WT mouse islets, G2, 1uM): 59.5409 pg/ml/ islet
- Islet insulin, mean ([1]; WT mouse islets, G2, 1uM): 1.1716
- Islet Glucagon ([1]; WT mouse islets, G16, 1uM): 19.839 pg/ml/ islet and 16.487 pg/ml/ islet and 37.465 pg/ml/ islet and 8.951 pg/ml/ islet and 23.354 pg/ml/ islet and 22.21 pg/ml/ islet and 33.167 pg/ml/ islet and 31.559 pg/ml/ islet and 48.792 pg/ml/ islet
- Islet insulin ([1]; WT mouse islets, G16, 1uM, listed as L-005427846): 11.936 and 11.639 and 13.085 and 12.097 and 12.133 and 11.613 and 12.28 and 12.692 and 11.465 and 12.253
- Islet Glucagon, mean ([1]; WT mouse islets, G16, 1uM): 26.8693 pg/ml/ islet
- Islet insulin, mean ([1]; WT mouse islets, G16, 1uM): 12.1193
- glucagon secretion from islets ([1]; WT mouse islets): significantly elevated
- Plasma Glucagon Over Time (Fig 2C) (GK rats; time 0, individual animals): 19.5235 pg/mL and 95.1724 pg/mL and 78.4069 pg/mL and 68.928 pg/mL and 101.768 pg/mL and 68.1132 pg/mL and 64.8322 pg/mL and 90.2934 pg/mL
- Plasma Insulin Over Time (Fig 2B) (GK rats; time 0, individual animals): 1.335 ng/mL and 3.288 ng/mL and 2.57 ng/mL and 2.616 ng/mL and 1.578 ng/mL and 2.696 ng/mL and 1.845 ng/mL and 1.5169 ng/mL
- Plasma Glucagon Over Time (Fig 2C) (GK rats; time 1, individual animals): 91.082 pg/mL and 337.393 pg/mL and 327.979 pg/mL and 373.532 pg/mL and 338.805 pg/mL and 110.666 pg/mL and 312.795 pg/mL and 175.651 pg/mL
- Plasma Insulin Over Time (Fig 2B) (GK rats; time 1, individual animals): 7.035 ng/mL and 11.786 ng/mL and 10.5354 ng/mL and 9.1461 ng/mL and 4.564 ng/mL and 7.402 ng/mL and 7.0553 ng/mL and 5.184 ng/mL
- Plasma Glucagon Over Time (Fig 2C) (GK rats; time 2, individual animals): 309.053 pg/mL and 291.695 pg/mL and 285.862 pg/mL and 322.143 pg/mL and 116.312 pg/mL and 40.1476 pg/mL and 259.365 pg/mL and 215.877 pg/mL
- Plasma Insulin Over Time (Fig 2B) (GK rats; time 2, individual animals): 3.782 ng/mL and 3.3115 ng/mL and 3.493 ng/mL and 3.854 ng/mL and 1.215 ng/mL and 0.8625 ng/mL and 2.2798 ng/mL and 2.163 ng/mL
- Plasma Glucagon Over Time (Fig 2C) (GK rats; time 4, individual animals): 120.787 pg/mL and 261.082 pg/mL and 116.805 pg/mL and 218.976 pg/mL and 231.061 pg/mL and 206.193 pg/mL and 151.031 pg/mL and 315.618 pg/mL
- Plasma Insulin Over Time (Fig 2B) (GK rats; time 4, individual animals): 3.033 ng/mL and 3.537 ng/mL and 3.038 ng/mL and 2.421 ng/mL and 1.582 ng/mL and 1.483 ng/mL and 2.06 ng/mL and 1.86 ng/mL
- Plasma Glucagon Over Time (Fig 2C) (GK rats; time 24, individual animals): 114.227 pg/mL and 80.8254 pg/mL and 201.451 pg/mL and 177.87 pg/mL and 103.778 pg/mL and 114.567 pg/mL and 171.755 pg/mL and 119.088 pg/mL
- Plasma Insulin Over Time (Fig 2B) (GK rats; time 24, individual animals): 1.556 ng/mL and 1.426 ng/mL and 1.797 ng/mL and 1.415 ng/mL and 0.6908 ng/mL and 1.576 ng/mL and 1.455 ng/mL and 1.848 ng/mL
- Binding Results, % in parentheses, [^3H]AP9 (human GPR40; WT human GPR40, maximal % (not defined)): (101%)
- IC50 (human GPR40; WT human GPR40, n = 2–13, read-out: Binding Results [IC50, nM], [^3H]AP9): 5.9 ± 5.2 nM
- binding of [^3H]25 (human GPR40; human GPR40 membranes, competition binding): displace
- %Act, HUMAN GPR40, Binding Data (human GPR40; individual determinations, AgoPAM tracer (per Table 2)): 102% and 101%
- IC50 (human GPR40; individual determinations, AgoPAM tracer (per Table 2), read-out: IC50 (nM), HUMAN GPR40, Binding Data): 2.18 nM and 9.53 nM
- % Bound Normalized to 100 (human GPR40; [2]): 96.23%
- %Bound (human GPR40; [2]): 90.33%
- inhibition at 0.000318285 µM (human GPR40; [2]): 6.84%
- % Bound Normalized to 100 (human GPR40; [3]): 76.57%
- %Bound (human GPR40; [3]): 70.67%
- inhibition at 0.00100578 µM (human GPR40; [3]): 10.2%
- % Bound Normalized to 100 (human GPR40; [4]): 49.04%
- %Bound (human GPR40; [4]): 43.15%
- inhibition at 0.00317827 µM (human GPR40; [4]): 27.8%
- % Bound Normalized to 100 (human GPR40; [5]): 29.38%
- %Bound (human GPR40; [5]): 23.49%
- inhibition at 0.0100433 µM (human GPR40; [5]): 52.8%
- % Bound Normalized to 100 (human GPR40; [6]): 11.81%
- %Bound (human GPR40; [6]): 5.92%
- inhibition at 0.0317369 µM (human GPR40; [6]): 84.3%
- % Bound Normalized to 100 (human GPR40; [7]): 9.60%
- %Bound (human GPR40; [7]): 3.71%
- inhibition at 0.100289 µM (human GPR40; [7]): 92.8%
- % Bound Normalized to 100 (human GPR40; [8]): 4.07%
- %Bound (human GPR40; [8]): -1.82%
- inhibition at 0.316912 µM (human GPR40; [8]): 100%
- % Bound Normalized to 100 (human GPR40; [9]): 2.48%
- %Bound (human GPR40; [9]): -3.42%
- inhibition at 1.00144 µM (human GPR40; [9]): 102%
- % Bound Normalized to 100 (human GPR40; [10]): 6.29%
- %Bound (human GPR40; [10]): 0.39%
- inhibition at 3.16456 µM (human GPR40; [10]): 99.9%
- % Bound Normalized to 100 (human GPR40; [11]): 6.04%
- %Bound (human GPR40; [11]): 0.15%
- inhibition at 10 µM (human GPR40; [11]): 101%
